Reference: patent US10557129B2, “Peptides derived from human PCSK9 catalytic domain and uses thereof for promoting LDL-R activity” (Pronasci Inc., priority 2015, dated 2020)
Values belong to the substance of their own block, whether it stands above or below them.

Tests used:
[1] = Model fluorescence quenching of FI-Bio-Ahx-Lys-Methyl ester (IIId) by biotin-binding proteins; conditions: for quenching of fluorescence intensity of (IIId): 8:1 molar ratio protein:(IIId), FIGS. 7A, 7B; for maximal quenching of fluorescence intensity of (IIId): data not shown
Procedure: FIG. 7A illustrates fluorescence scan spectroscopy of FI-Bio-Ahx-Lys-Methyl ester (IIId) in presence of avidin.
FIG. 7B illustrates fluorescence scan spectroscopy of FI-Bio-Ahx-Lys-Methyl ester (IIId) in presence of insulin as control peptide. […] For each experiment 5 μl of 0.5 mM (IIId) peptide in water was used.
Previously a number of studies reported that the interaction between two ligands one of which is fluorescence labeled can be followed by studying fluorescence intensity. In general the fluorescence intensity is suppressed with or without shift of emission peak position when there is a strong interaction between the two ligands. Greater the suppression or quenching of fluorescence intensity, greater is the strength of binding. In order to further confirm the above notion, a study was carried out by using a fixed concentration of fluorescent biotinylated peptide (IIId) and increasing doses of avidin protein. […] These avidin analogs with varying binding affinity towards biotin have been developed and made available through commercial organizations [Polyscience Inc., Technical Data Sheet Report-779]. […] This study confirms that fluorescence quenching is an indicator of binding between two ligands one of which is fluorescently labeled.

[2] = Molecular Probes handbook; read-out: Kd with biotin; cited from earlier work
[3] = tested on: LDL-R; experiment: Rescue of LDL-R level in cells after addition of rec-PCSK9 protein (HuH7); assay type: cell-based, human
Procedure: FIG. 13 illustrates (A) Western blot analyses showing the quantitation of LDL-R and PCSK9 levels under various conditions in HepG2 cells. These are western blot figures showing the effect of externally added FI-EGF-A peptide on exogenous levels of LDL-R and PCSK9 in growing HepG2 cells. The cells were harvested after 24 h and whole cell lysates were used for analysis of LDL-R, PCSK9 and actin levels both for control sample (DMSO) and FI-EGF-A done in duplicates. Actin was used as a house keeping control protein for quantitation purpose. (B): Rescue effect of FI-EGF-A peptide added in increasing concentration levels on LDL-R in growing HuH7 cells in the presence of added rec-PCSK9 protein. […]
(§1) In general 20 μg of WCLs derived from various peptide treated HepG2 cell experiments was resolved by conventional 12% SDS-PAGE (Laemmli, 1970 #2). Resolved samples were then transferred to polyvinylidene fluoride (Bio-Rad #162-0177) and probed for LDL-R (R&D Systems #AF2148), hPCSK9 (Circulex #CY-M1033), Transferrin Recepter (TR) (Invitrogen #13-6800), αβ-actin-HRP (Horse Radish Peroxidase) (abcam #ab49900) and αFLAG-HRP (abcam #1238) primary antibodies and detected with α goat-HRP (abcam #ab6741) or a mouse-HRP (Bio-Rad #172-1011) secondary antibodies and visualized on a Bio-Rad versa dock imaging system using Clarity ECL Western Substrate (Bio-Rad #170-5060). […]

[4] = target: T1, LDL-R (Homo sapiens, UniProt P01130); experiment: LDL-R level in HepG2 cells by western blot of whole cell lysates; assay type: cell-based
T1 construct: western blot analyses for endogenous LDL-R; endogenous in cells; host or cells: HepG2
T1 sequence (P01130 22-860): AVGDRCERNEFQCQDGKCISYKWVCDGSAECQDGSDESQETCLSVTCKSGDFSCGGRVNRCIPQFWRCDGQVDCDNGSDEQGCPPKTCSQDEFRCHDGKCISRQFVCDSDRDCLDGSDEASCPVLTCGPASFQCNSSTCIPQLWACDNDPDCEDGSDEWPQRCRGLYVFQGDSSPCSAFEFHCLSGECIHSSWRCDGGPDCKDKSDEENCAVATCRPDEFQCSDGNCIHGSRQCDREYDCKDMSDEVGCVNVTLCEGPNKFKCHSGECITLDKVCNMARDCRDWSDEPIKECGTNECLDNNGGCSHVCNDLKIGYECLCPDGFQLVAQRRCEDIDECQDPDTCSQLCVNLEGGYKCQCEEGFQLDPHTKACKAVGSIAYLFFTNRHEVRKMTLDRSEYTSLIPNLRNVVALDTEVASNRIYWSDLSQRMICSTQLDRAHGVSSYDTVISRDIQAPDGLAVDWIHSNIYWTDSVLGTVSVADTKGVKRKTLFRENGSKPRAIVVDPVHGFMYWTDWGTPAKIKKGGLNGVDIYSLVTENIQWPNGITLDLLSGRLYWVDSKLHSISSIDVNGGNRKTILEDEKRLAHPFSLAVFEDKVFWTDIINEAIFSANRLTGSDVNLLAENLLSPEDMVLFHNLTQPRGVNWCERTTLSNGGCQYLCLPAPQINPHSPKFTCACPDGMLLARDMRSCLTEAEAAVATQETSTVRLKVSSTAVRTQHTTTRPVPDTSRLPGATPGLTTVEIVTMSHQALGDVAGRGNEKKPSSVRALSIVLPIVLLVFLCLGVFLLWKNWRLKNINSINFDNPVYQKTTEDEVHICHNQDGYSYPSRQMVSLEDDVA
Procedure: (§2) FIG. 13 illustrates (A) Western blot analyses showing the quantitation of LDL-R and PCSK9 levels under various conditions in HepG2 cells. These are western blot figures showing the effect of externally added FI-EGF-A peptide on exogenous levels of LDL-R and PCSK9 in growing HepG2 cells. The cells were harvested after 24 h and whole cell lysates were used for analysis of LDL-R, PCSK9 and actin levels both for control sample (DMSO) and FI-EGF-A done in duplicates. Actin was used as a house keeping control protein for quantitation purpose. (B): Rescue effect of FI-EGF-A peptide added in increasing concentration levels on LDL-R in growing HuH7 cells in the presence of added rec-PCSK9 protein. Rec-PCSK9 was incubated with various amounts of FI-EGF-A for 3 h at room temp and then applied to cells growing in 2 mL media to the concentrations as indicated in the figure. The cells were harvested 7 h later.
(§3) FIG. 14 illustrates Western blots showing PCSK9 and LDL-R levels in the presence of various PCSK9 catalytic peptides in HepG2 cell. […]
(§4) The number passages of cell lines used were 6-8 times until they are at least 80% confluent as determined by microscope. […] All culture samples including whole cell lysate (WCL) were analysed for their protein contents using Pierce BCA (Bicinchoninic acid) reagent method or Bradford assay (Bio-Rad #500-0205) as described later.
as §1

[5] = tested on: PCSK9; experiment: PCSK9 level in HepG2 cells by western blot of whole cell lysates; assay type: cell-based, human; conditions: HepG2, 12 μg/ml, 24 h; FIG. 13A
Procedure: as §2, §3
as §4, with “later. […]” for “later.”

[6] = target: T2, recombinant hPCSK9 wild type (Homo sapiens, UniProt Q8NBP7); experiment: SDS-PAGE fluorescence / western blot binding of FI-EGF-A to recombinant FLAG-hPCSK9; conditions: 5 μg FI-EGF-A + 1 μg rec-hPCSK9 WT, 2 h room temperature; fluorescent band at ~65 kDa; FIG. 12
T2 construct: complex formation between 60 kDa rec-hPCSK9 mature form with 5 kDa FI-EGF-A; made in house
T2 sequence (Q8NBP7 153-692): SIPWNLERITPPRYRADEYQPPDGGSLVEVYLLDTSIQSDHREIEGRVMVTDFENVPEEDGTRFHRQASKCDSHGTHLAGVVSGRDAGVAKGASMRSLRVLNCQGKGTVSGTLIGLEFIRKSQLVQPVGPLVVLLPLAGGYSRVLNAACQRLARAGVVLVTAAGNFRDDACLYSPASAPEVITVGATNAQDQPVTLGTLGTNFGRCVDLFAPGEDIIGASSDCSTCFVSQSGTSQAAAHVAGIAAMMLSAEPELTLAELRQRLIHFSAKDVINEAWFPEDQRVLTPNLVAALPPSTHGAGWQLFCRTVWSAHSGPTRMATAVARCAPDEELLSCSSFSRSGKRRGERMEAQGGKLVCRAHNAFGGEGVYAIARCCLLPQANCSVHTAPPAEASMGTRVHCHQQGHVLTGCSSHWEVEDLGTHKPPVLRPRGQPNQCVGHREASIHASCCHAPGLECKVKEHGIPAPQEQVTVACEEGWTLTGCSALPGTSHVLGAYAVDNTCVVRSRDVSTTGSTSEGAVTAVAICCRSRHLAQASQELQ
T2 sequence (Q8NBP7 31-152 partner limits assumed): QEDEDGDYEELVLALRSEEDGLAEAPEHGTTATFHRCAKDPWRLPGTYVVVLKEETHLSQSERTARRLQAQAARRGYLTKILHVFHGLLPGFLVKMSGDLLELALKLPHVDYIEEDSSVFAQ
Procedure: FIG. 12 illustrates SDS-Gel electrophoresis of FI-EGF-A peptide in presence and absence of recombinant hPCSK9 protein. 5 μg of FI-EGF-A (Ib) was incubated with 1 μg rec-hPCSK9 wild type (WT) for 2 h at room temperature. The samples were resolved in 10% SDS PAGE. Left: Fluorescence detection; Right: Western blot using anti-FLAG as primary antibody. There is a fluorescence positive band around 65 kDa (a mobility shift by ˜5 kDa) shown by thick arrow indicating complex formation between 60 kDa rec-hPCSK9 mature form with 5 kDa FI-EGF-A (Ib) (Left panel). […] It is also noticed that after incubation with FI-EGF-A peptide, the 74 kDa PCSK9 protein is not recognized by anti-FLAG antibody while the 60 kDa hPCSK9 protein is still recognized but with reduced potency. […]
Binding assays of various PCSK9 peptides were carried out by incubating 15 μg of each peptide (˜0.008 mM) with 20 μg of FL-EGF-A in a final volume of 20 μl of 25 mM HEPES (pH 7.4), 150 mM NaCl, 2 mM CaCl2 for 2 h at 37° C. Similar study was also performed using recPCSK9 wild type as well as D/Y variants against FI-EGF-A. Each sample along with the control without any added peptide was assessed for any binding between FI-EGF-A and peptide using fluorescence study, Mass spectrometry and Native gel studies […]

[7] = target: T1, LDL-R; conditions: added exogenously to growing HepG2 cells; cited from earlier work

Substance: Nutravidin: avidin analog with binding affinity towards biotin
maximal quenching of fluorescence intensity of (IIId) [1]: 85%

Substance: GEDIIGASSDCSTCFVSQSG [CP3]
rescue of LDL-R level following degradation by externally added PCSK9 protein ([3]; cell line not stated at the place (HepG2 or HuH7)): can rescue LDL-R level to a significant level
LDL-R promoting activity ([4]; HepG2, 5.5 μM, FIG. 16): modest but significant LDL-R promoting activity

Substance: FI-EGF-A: 5-Carboxy Fluorescein N-terminally labeled 42 aa EGF-A domain peptide of hLDL-R (aa314-355)
PCSK9 level versus DMSO control [5]: marked up regulation of PCSK9
restoration of LDL-R level after rec-PCSK9 ([3]; HuH7 cells, rec-PCSK9 20 μg/ml, increasing amounts of FI-EGF-A, FIG. 13B): partly restored gradually
LDL-R level versus DMSO control ([4]; HepG2, 12 μg/ml, 24 h, standardized against actin, FIG. 13A): significant up regulation of the LDL-R
complex formation with recPCSK9 [6]: forms a stable complex

Substance: (aa368-390): peptide of catalytic segment of hPCSK9 (aa368-390) from a previous study (IIGASSDCSTCFVSQSGTSQAAA; UniProt Q8NBP7 368-390, looked up, fragment)
LDL-R promoting effect (previous study) [7]: modest LDL-R promoting effect

Substance: Captavidin: avidin analog with binding affinity towards biotin
maximal quenching of fluorescence intensity of (IIId) [1]: 75.5%

Substance: (aa181-200): peptide of catalytic segment of hPCSK9 (aa181-200) from a previous study (EVYLLDTSIQSDHREIEGRV; UniProt Q8NBP7 181-200, looked up, fragment)
LDL-R promoting effect (previous study) [7]: modest LDL-R promoting effect

Continued, in another order:

quenching of fluorescence intensity of (IIId) [1]: ~98%
Substance: avidin: biotin-binding protein

maximal quenching of fluorescence intensity of (IIId) [1]: ~81.4%
Substance: streptavidin: avidin analog with binding affinity towards biotin
Kd [2]: ~0.1 nM

quenching of fluorescence intensity of (IIId) [1]: 30%
Substance: h insulin: control peptide which does not bind with biotin

LDL-R promoting effect of acyclic mutant compared with CP3 ([4]; HepG2, FIG. 16): completely lost
Substance: ^365GEDIIGASSDASTCFVSQSG^384 [CP3-C/A]
